Consider 4 compounds from ChEMBL document CHEMBL1138670, “Prospects for inhibitors of protein tyrosine phosphatase 1B as antidiabetic drugs” (J Med Chem, 2004).

What is called Ki is the dissociation constant of the complex between target and ligand, obtained from inhibition or displacement. Lower therefore signals tighter binding.

SMILES strings stand for the structures.

The target in series [1] is T1, Tyrosine-protein phosphatase non-receptor type 1 (Homo sapiens) (UniProt P18031).
T1 sequence (whole entry): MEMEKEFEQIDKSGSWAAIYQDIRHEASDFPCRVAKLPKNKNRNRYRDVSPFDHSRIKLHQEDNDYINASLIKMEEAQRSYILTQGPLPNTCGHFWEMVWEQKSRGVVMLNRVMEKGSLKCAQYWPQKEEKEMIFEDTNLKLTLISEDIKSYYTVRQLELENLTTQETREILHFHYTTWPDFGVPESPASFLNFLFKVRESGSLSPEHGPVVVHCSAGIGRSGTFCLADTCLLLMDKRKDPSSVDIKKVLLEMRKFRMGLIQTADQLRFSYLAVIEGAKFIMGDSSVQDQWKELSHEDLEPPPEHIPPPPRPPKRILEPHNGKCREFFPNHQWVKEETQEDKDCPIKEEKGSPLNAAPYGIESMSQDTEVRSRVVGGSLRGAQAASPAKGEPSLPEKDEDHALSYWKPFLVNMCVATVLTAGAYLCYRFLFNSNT
As to the kind of experiment: Inhibitory concentration for Protein-tyrosine phosphatase 1B.

Series [2] is described as follows: Bioavailability. Format: ADME, organism-based. The following applies: eutheria, in vivo; read-out: Fez.
Series [3] concerns the target T2, Tyrosine-protein phosphatase non-receptor type 1 (Homo sapiens, UniProt P18031).
T2 sequence (P18031 whole entry): T1 sequence (whole entry)
The experiment in a line: Inhibitory activity against Protein-tyrosine phosphatase 1B at pH 5.5.

Series [4] deals with T2, Tyrosine-protein phosphatase non-receptor type 1. As to the kind of experiment: Inhibitory activity against Protein-tyrosine phosphatase 1B.

`CC(C)c1ccc(N2N=C3CSCC=C3C(C#N)=C2N)cc1` displayed a Concentration in series [1] of 5.6 µM.

For `O=C(c1ccccc1)C(Cc1ccc(C(F)(F)P(=O)(O)O)cc1)c1ccccc1` (centres undefined), in series [2], the bioavailability is 13%.

As to `O=C(O)C(=O)Nc1sc2c(c1C(=O)O)CCN[C@H]2CNC(=O)c1cc2cc(F)ccc2[nH]1`, the affinity in series [3], expressed as Ki, was 18 nM. This lies in the double-digit nanomolar range.

In series [4], `CCc1cc(CC(NC(C)=O)C(=O)NCCCCC(=O)N[C@@H](CCSC)C(=O)O)ccc1N(C(=O)C(=O)O)c1ccccc1C(=O)O` (some centres undefined) gave a Ki of 77 nM.
